Consider two compounds from patent EP2982368A1, “Small molecule compounds displacing focal adhesion core components” (Universität Konstanz, priority 2014, dated 2016).

Experiment [1] concerns the target T1, FAK (Mus musculus, UniProt P34152).
T1 construct: expressed in transfected cells; host or cells: FAK-/- (p53-/-) mouse embryonic fibroblasts stably re-expressing GFP-FAK
Kind of experiment: GFP-FAK displacement from focal adhesions (fluorescence imaging, ImageJ quantification of focal adhesions per cell). The following applies: for pIC50: GFP-FAK MEFs on fibronectin, 1 h incubation, focal adhesions per cell, Hill slope model, read-out: IC50 (displacement of FAK from focal adhesions, cellular IC50); for time to FAK displacement, vinculin localization not disturbed: GFP-FAK MEFs stably expressing mKate-vinculin, 40 µM; for time to FAK displacement from focal adhesions: 20 µM, time series; for concentration sufficient to induce FAK displacement: increasing concentrations. It is filed as cell-based. The text has this:
Ectopic expression of FRNK as a dominant negative inhibitor of FAK effectively blocks FAK dependent events. This type of interference seems to be used physiologically for regulation of FAK function in certain cell types (Taylor et al. 2001). However, there is currently no possibility to instantaneously interfere with FAK localization. Therefore, the inventors sought to identify small molecules to disrupt FAK mediated protein-protein-interactions. Towards this line they set-up a High Content Screen based on FAK-/- MEFs re-expressing GFP-FAK to visualize FAK localization at focal adhesions. Cells were seeded on fibronectin and incubated to allow adherence and spreading. Prior to fixation, cell nuclei were Hoechst stained. FAK containing focal adhesions and cells per field of view were quantified using a custom-made macro for ImageJ. The macro identifies focal adhesions due to local maxima of fluorescence intensity in the GFP-channel. Cells were counted in the Hoechst channel based on a binary image. Closely connected cell nuclei were separated by a watershed algorithm. […] Next, as a proof of principle GFP-FAK MEFs were transduced to express mKate2-tagged FRNK. mKate2-FRNK localizes to focal adhesions, where it efficiently displaces GFP-FAK (Figure 2). […] Consequently, the software can correctly identify FAK displacement from focal adhesions.
In order to find small molecules which induce the specific delocalization of FAK, two commercial compound libraries with more than 17.000 entries were screened. GFP-FAK MEFs were seeded on fibronectin in multi-well plates and compounds were transferred to the cells with a robot to a final concentration of 40 µM. Cells were incubated for 4 h and nuclei were Hoechst stained prior to fixation. Cells were imaged with an automated microscope and data were analyzed with the ImageJ macro. In the first screening round the macro identified 108 hits, which were curated by visual inspection to exclude instances of dramatic cell rounding and/or detachment. […] To validate these primary hits the inventors transduced the GFP-FAK MEFs to stably express mKate-vinculin, which serves as a FAK-independent marker of focal adhesions and facilitates indication of specific FAK displacement. On a first approach two compounds were identified, which induced FAK displacement within less than 1 h, while vinculin localization was not disturbed (Figure 4). […] Strikingly, they share distinct structural characteristics since both compounds have a NO2-group and an isosteric halogen-substituted phenyl- or thiophene-group (Figure 5).
In order to investigate the kinetics of FAK displacement at focal adhesions a time series was performed. GFP-FAK MEFs were treated with 20 µM of Mb31 or Mb36 and fixed after different time points. […] Mb36 kinetic was slightly slower with FAK delocalization after 20 min. In addition, GFP-FAK MEFs were treated with increasing concentrations of Mb31 or Mb36 to determine the minimum concentration required to interfere with FAK localization. Untreated or solvent (DMSO) treated cells show the expected localization of FAK at focal adhesions. […] Already 2 µM of Mb31 were sufficient to induce FAK displacement. […] Due to the faster kinetic and lower IC50 compared to Mb36 further studies were mainly performed using Mb31. […] In contrast, vinculin localization and the focal adhesion localization of talin, α-actinin, and zyxin is not disturbed (Figure 5 and Table 1).
About 17.000 compounds (40 µM working concentration) were screened for their ability to displace GFP-FAK from focal adhesions (FA) using an automated microscope (ImageXpress Micro, Molecular Devices, Ismaning, Germany) equipped with a Nikon 20x/0.75 NA CFI Plan Apo objective. […]

Experiment [2] addresses T2, FAK/Paxillin (Mus musculus, UniProt P34152+Q8VI36).
T2 construct: expressed in transfected cells; host or cells: mouse fibroblasts stably expressing GFP-FAK
Kind of experiment: FAK/Paxillin displacement by structurally related compounds (FootLocker series, confocal microscopy). It is filed as cell-based. The protocol:
To determine whether compounds structurally related to Mb31 and Mb36 are likewise suitable to interfere with FAK localization at focal adhesions, mouse fibroblasts stably expressing GFP-FAK were treated for 30 min with 1, 10 or 20 µM of the following compounds: trans-3-hydroxy-β-nitrostyrene (THBN), trans-4-Chloro-β-nitrostyrene (T4CN), trans-β-nitrostyrene (TBN), 4-chlorocinnamic acid (4CA), and trans-3-(4-bromothiophen-2-yl)acrylic acid (T34BA) (Figures 16 and 17). The cells were analyzed by confocal microscopy for GFP-FAK localization. DMSO treatment served as a vehicle control. […] Additional substituents at the aromatic structures, such as halogen atoms or hydroxy groups may contribute to the reactivity of the compound, but are not essential. Based on these findings, the inventors have extended their structure activity-relationship studies and synthesized additional related compounds, which, similar to Mb31, displace FAK and paxillin at concentrations below 10µM (++), displace FAK and paxillin at concentrations above 10 µM (+), or lack FAK and paxillin displacing activity (-). All these substances were then also nicknamed in the FLocker terminology, resulting in FLocker1 - FLocker24 (Table 2). Table 2: Overview of FootLocker nomenclature, their chemical notation/structure and the activity towards FAK/Paxillin displacement

Usually pIC50 stands for the IC50 on a negative log10 scale, so that one unit is a factor of ten.

Structures are written as SMILES. pIC50: −log10 of the molar value. Some results are limits rather than exact numbers.

T1 sequence (P34152 whole entry): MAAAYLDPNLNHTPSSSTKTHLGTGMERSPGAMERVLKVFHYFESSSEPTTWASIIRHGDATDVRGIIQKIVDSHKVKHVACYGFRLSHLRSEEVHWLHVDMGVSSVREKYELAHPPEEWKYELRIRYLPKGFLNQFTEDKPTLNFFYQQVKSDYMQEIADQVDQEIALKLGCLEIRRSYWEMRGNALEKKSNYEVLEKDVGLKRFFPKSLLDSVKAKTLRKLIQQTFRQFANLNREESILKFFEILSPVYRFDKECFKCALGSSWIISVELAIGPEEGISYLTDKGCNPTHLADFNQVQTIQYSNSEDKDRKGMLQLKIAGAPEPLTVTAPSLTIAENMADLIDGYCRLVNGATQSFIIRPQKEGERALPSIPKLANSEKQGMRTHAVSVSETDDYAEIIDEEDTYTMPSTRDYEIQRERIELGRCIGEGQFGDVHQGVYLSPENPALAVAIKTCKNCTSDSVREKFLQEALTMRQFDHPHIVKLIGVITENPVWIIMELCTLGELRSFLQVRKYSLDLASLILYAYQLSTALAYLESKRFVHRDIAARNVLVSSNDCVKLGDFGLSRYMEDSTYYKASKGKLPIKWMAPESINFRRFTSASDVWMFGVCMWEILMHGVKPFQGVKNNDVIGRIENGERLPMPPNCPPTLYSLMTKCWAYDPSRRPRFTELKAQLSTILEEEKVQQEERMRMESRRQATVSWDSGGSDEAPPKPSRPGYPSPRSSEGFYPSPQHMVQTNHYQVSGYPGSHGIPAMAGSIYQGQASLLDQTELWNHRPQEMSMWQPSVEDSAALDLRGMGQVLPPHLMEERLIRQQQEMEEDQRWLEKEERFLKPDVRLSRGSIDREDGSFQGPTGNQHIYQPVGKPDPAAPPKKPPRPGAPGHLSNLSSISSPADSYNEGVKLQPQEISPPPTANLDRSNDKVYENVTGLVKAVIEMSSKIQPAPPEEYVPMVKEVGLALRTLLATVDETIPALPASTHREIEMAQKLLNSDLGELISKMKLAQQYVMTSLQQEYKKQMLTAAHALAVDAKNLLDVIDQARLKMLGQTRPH
T2 sequence (P34152 whole entry): as above
T2 sequence (Q8VI36 whole entry): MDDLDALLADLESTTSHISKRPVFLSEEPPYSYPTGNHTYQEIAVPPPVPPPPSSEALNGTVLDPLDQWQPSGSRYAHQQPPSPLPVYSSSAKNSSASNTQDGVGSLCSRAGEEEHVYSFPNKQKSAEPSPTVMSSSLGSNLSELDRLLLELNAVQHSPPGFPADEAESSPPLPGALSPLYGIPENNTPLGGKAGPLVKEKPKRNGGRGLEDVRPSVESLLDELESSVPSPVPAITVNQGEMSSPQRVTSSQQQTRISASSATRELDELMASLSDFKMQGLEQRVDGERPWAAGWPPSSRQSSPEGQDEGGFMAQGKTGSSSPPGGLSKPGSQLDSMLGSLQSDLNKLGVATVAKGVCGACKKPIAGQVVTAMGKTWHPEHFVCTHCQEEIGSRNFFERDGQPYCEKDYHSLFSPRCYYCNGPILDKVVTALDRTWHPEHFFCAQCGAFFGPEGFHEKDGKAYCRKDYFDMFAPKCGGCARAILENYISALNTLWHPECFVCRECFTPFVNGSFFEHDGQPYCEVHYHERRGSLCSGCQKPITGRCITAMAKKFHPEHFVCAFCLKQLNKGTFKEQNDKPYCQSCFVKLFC

Regarding `Nc1ccc(SC(C[N+](=O)[O-])c2ccc(Cl)cc2)cc1` (centres unmarked) [FootLocker 2, 4-{[1-(4-chlorophenyl)-2-nitroethyl]thio}aniline], in experiment [1], the pIC50 was roughly 5.39 and the “time to FAK displacement, vinculin localization not disturbed” value is “less than 1 h”. In experiment [1] (GFP-FAK MEFs, 2 µM), the “effect on FAK localization” value was “no effect was observed”. For the same compound, in experiment [1] (GFP-FAK MEFs), the “time to FAK displacement from focal adhesions” value is on record as 20 min and the “concentration sufficient to induce FAK displacement” value came to 5 µM. Also, in experiment [2], the “compounds showing the most prominent effect on protein-protein interactions at focal adhesion site” value was “most prominent effect” and the “disruption of protein-protein interactions at focal adhesion site” value is listed as “efficiently disrupt protein-protein interactions at focal adhesion site”.

Take `O=[N+]([O-])C=Cc1cc(Br)cs1` [FootLocker 1, 4-bromo-2-(2-nitrovinyl)thiophene]: in experiment [1], the pIC50 is roughly 5.70 and the “time to FAK displacement, vinculin localization not disturbed” value is listed as “less than 1 h”. In experiment [1] (GFP-FAK MEFs), the “time to FAK displacement from focal adhesions” value is no more than 5 min and the “concentration sufficient to induce FAK displacement” value is 2 µM. For the same compound, the “concentration sufficient for efficient FAK displacement” value in experiment [1] (second approach, narrower concentration range (1-5 µM)) is on record as “about 4 µM”. In experiment [2], the “compounds showing the most prominent effect on protein-protein interactions at focal adhesion site” value is “most prominent effect” and the “disruption of protein-protein interactions at focal adhesion site” value is “efficiently disrupt protein-protein interactions at focal adhesion site”.
